# According to US9169310B2 (Zealand Pharma A/S, priority 2010, dated 2015):
# pEC50: −log10 of the molar value. Read-outs that look alike come from different tables or passages of the source. Starred links: 1 amine or outer side, 2 acyl side, 3 side chain; linkers in the order of their positions; H or OH if unused. Non-standard residues stand in square brackets, D forms with d. Residues, ends and D or L forms follow the SMILES beside them. Groups on a side chain read outwards from the residue. *: point of attachment. γGlu = O=C(O)[C@H](CCC(=O)[*:2])N[*:1]; Palmitoyl = CCCCCCCCCCCCCCCC(=O)*; Aib = CC(C)(N)C(=O)O
# Assays:
# human GLP-1R = molecular target: T1, human GLP-1R (Homo sapiens, UniProt P43220); assay: GLP-1 receptor efficacy assay (cAMP formation, FlashPlate cAMP kit); assay type: cell-based; details: HEK293 cells expressing human GLP-1R; cAMP formed, 15 min at 37° C.
# T1 construct: expressed in transfected cells
# Experimental: (§1) The 5′-end primers additionally encoded a near Kozak consensus sequence to ensure efficient translation.
# (§2) 48 hr after transfection, cells were seeded for limited dilution cloning and selected with 1 mg/ml G418 in the culture medium.
# human glucagon-R = molecular target: T2, human glucagon-R (Homo sapiens, UniProt P47871); assay: Glucagon receptor efficacy assay (cAMP formation, FlashPlate cAMP kit); assay type: cell-based; details: for EC50: HEK293 cells expressing human glucagon-R; cAMP formed, 15 min at 37° C.; read-out: EC50 nM) GluR
# T2 construct: expressed in transfected cells
# Experimental: as §1, §2
# T2 sequence (P47871 26-477): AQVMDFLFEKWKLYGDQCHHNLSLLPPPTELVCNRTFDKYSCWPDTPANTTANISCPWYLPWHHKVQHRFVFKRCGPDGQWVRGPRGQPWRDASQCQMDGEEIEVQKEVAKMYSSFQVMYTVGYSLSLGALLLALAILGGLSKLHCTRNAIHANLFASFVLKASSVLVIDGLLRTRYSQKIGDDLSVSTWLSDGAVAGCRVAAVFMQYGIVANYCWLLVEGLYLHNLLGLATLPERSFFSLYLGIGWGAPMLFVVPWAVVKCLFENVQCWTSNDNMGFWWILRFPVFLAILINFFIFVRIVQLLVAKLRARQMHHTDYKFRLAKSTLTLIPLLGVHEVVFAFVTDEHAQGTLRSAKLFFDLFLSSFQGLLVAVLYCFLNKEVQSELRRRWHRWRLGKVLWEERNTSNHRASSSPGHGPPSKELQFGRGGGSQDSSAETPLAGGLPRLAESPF
# T1 sequence (P43220 24-463): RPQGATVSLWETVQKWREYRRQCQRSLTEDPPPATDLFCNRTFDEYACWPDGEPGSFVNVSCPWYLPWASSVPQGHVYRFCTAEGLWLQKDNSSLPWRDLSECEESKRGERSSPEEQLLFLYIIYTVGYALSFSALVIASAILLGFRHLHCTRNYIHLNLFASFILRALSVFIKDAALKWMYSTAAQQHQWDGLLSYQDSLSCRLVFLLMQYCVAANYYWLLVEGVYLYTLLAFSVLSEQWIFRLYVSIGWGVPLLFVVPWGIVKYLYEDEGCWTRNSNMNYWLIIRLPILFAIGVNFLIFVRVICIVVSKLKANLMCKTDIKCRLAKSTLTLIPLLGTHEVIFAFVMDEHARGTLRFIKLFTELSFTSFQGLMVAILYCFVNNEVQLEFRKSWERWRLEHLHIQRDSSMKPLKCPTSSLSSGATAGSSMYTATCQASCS
EC50 (human GLP-1R) [nM],EC50 (human glucagon-R) [nM],"pEC50 (human glucagon-R; earlier determination, replaced by redetermination in Table 1, read-out: EC50 GluR, earlier determined value)",SMILES
0.16,0.15,–,CCCCCCCCCCCCCCCC(=O)N[C@@H](CCC(=O)NCCCC[C@H](NC(=O)[C@H](CO)NC(=O)[C@H](CC(=O)O)NC(=O)[C@H](CC(C)C)NC(=O)[C@H](Cc1ccc(O)cc1)NC(=O)[C@H](CCCCN)NC(=O)[C@H](CO)NC(=O)[C@H](Cc1ccc(O)cc1)NC(=O)[C@H](CC(=O)O)NC(=O)[C@H](CO)NC(=O)[C@@H](NC(=O)[C@H](Cc1ccccc1)NC(=O)[C@@H](NC(=O)CNC(=O)[C@H](Cc1c[nH]cn1)NC(=O)C(C)(C)NC(=O)[C@@H](N)Cc1c[nH]cn1)[C@@H](C)O)[C@@H](C)O)C(=O)N[C@@H](C)C(=O)N[C@@H](C)C(=O)N[C@@H](Cc1c[nH]cn1)C(=O)N[C@@H](CCC(=O)O)C(=O)N[C@@H](Cc1ccccc1)C(=O)N[C@H](C(=O)N[C@@H](CCC(=O)O)C(=O)N[C@@H](Cc1c[nH]c2ccccc12)C(=O)N[C@@H](CC(C)C)C(=O)N[C@@H](CC(C)C)C(=O)N[C@@H](CCC(=O)O)C(=O)N[C@@H](C)C(N)=O)C(C)C)C(=O)O [Compound 5] (H-H[Aib]HGTFTSDYSKYLDSK([γGlu-Palmitoyl])AAHEFVEWLLEA-NH2)
0.16,–,8.52,CCCCCCCCCCCCCCCC(=O)N[C@@H](CCC(=O)NCCCC[C@H](NC(=O)[C@H](CO)NC(=O)[C@H](CC(=O)O)NC(=O)[C@H](CC(C)C)NC(=O)[C@H](Cc1ccc(O)cc1)NC(=O)[C@H](CCCCN)NC(=O)[C@H](CO)NC(=O)[C@H](Cc1ccc(O)cc1)NC(=O)[C@H](CC(=O)O)NC(=O)[C@H](CO)NC(=O)[C@@H](NC(=O)[C@H](Cc1ccccc1)NC(=O)[C@@H](NC(=O)CNC(=O)[C@@H](NC(=O)C(C)(C)NC(=O)[C@@H](N)Cc1c[nH]cn1)[C@@H](C)CC)[C@@H](C)O)[C@@H](C)O)C(=O)N[C@@H](C)C(=O)N[C@@H](C)C(=O)N[C@@H](Cc1c[nH]cn1)C(=O)N[C@@H](CC(=O)O)C(=O)N[C@@H](Cc1ccccc1)C(=O)N[C@H](C(=O)N[C@@H](CCC(=O)O)C(=O)N[C@@H](Cc1c[nH]c2ccccc12)C(=O)N[C@@H](CC(C)C)C(=O)N[C@@H](CC(C)C)C(=O)N[C@@H](CO)C(=O)N[C@@H](C)C(N)=O)C(C)C)C(=O)O [Compound 19] (H-H[Aib]IGTFTSDYSKYLDSK([γGlu-Palmitoyl])AAHDFVEWLLSA-NH2)
0.21,26,–,CCCCCCCCCCCCCCCC(=O)N[C@@H](CCC(=O)NCCCC[C@H](NC(=O)[C@H](CO)NC(=O)[C@H](CC(=O)O)NC(=O)[C@H](CC(C)C)NC(=O)[C@H](Cc1ccc(O)cc1)NC(=O)[C@H](CCCCN)NC(=O)[C@H](CO)NC(=O)[C@H](Cc1ccc(O)cc1)NC(=O)[C@H](CC(=O)O)NC(=O)[C@H](CO)NC(=O)[C@@H](NC(=O)[C@H](Cc1ccccc1)NC(=O)[C@@H](NC(=O)CNC(=O)CNC(=O)C(C)(C)NC(=O)[C@@H](N)Cc1c[nH]cn1)[C@@H](C)O)[C@@H](C)O)C(=O)N[C@@H](C)C(=O)N[C@@H](C)C(=O)N[C@@H](Cc1c[nH]cn1)C(=O)N[C@@H](CC(=O)O)C(=O)N[C@@H](Cc1ccccc1)C(=O)N[C@H](C(=O)N[C@@H](CCC(=O)O)C(=O)N[C@@H](Cc1c[nH]c2ccccc12)C(=O)N[C@@H](CC(C)C)C(=O)N[C@@H](CC(C)C)C(=O)N[C@@H](CO)C(=O)N[C@@H](C)C(N)=O)C(C)C)C(=O)O [Compound 20] (H-H[Aib]GGTFTSDYSKYLDSK([γGlu-Palmitoyl])AAHDFVEWLLSA-NH2)
0.09,0.15,–,CCCCCCCCCCCCCCCC(=O)N[C@@H](CCC(=O)NCCCC[C@H](NC(=O)[C@H](CO)NC(=O)[C@H](CCC(=O)O)NC(=O)[C@H](CC(C)C)NC(=O)[C@H](Cc1ccc(O)cc1)NC(=O)[C@H](CCCCN)NC(=O)[C@H](CO)NC(=O)[C@H](Cc1ccc(O)cc1)NC(=O)[C@H](CC(=O)O)NC(=O)[C@H](CO)NC(=O)[C@@H](NC(=O)[C@H](Cc1ccccc1)NC(=O)[C@@H](NC(=O)CNC(=O)[C@H](Cc1c[nH]cn1)NC(=O)C(C)(C)NC(=O)[C@@H](N)Cc1c[nH]cn1)[C@@H](C)O)[C@@H](C)O)C(=O)N[C@@H](C)C(=O)N[C@@H](C)C(=O)N[C@@H](CCC(=O)O)C(=O)N[C@@H](CCC(=O)O)C(=O)N[C@@H](Cc1ccccc1)C(=O)N[C@H](C(=O)N[C@@H](CCC(=O)O)C(=O)N[C@@H](Cc1c[nH]c2ccccc12)C(=O)N[C@@H](CC(C)C)C(=O)N[C@@H](CC(C)C)C(=O)N[C@@H](CCC(=O)O)C(=O)N[C@@H](C)C(N)=O)C(C)C)C(=O)O [Compound 31] (H-H[Aib]HGTFTSDYSKYLESK([γGlu-Palmitoyl])AAEEFVEWLLEA-NH2)
